Measured values as given in article PMC8698657, “Absorption and Transport Characteristics and Mechanisms of Carnosic Acid” (Biology, 2021).
Read-outs that look alike come from different tables or passages of the source.

How the values were obtained:
Caco-2 cell monolayer = assay: Trans-enterocyte transport of CA in Caco-2 cell monolayer; type: in vitro ADME, human; conditions: CA 50–100 μM
Description: (§1) Caco-2 were cultured in EMEM complete medium containing 10% FBS, 1% non-essential amino acids, and 1% penicillin-streptomycin double antibody, and the culture conditions were 37 °C, 5% CO2, in a constant temperature incubator [16]. We first established non-toxic dose ranges of CA in Caco-2 cells using MTT assay. Dimethylsulfoxide (DMSO) was used as the vehicle to deliver CA to the cells. The final concentration of DMSO in all experiments was 0.1% (v/v) in cell culture media. Caco-2 cells were seeded in a 96-well plate at a cell density of 5 × 10^4 cells/mL per well, and cultured under 5% CO2 and 37 °C for 24 h. A quantity of 200 μL of medium was added to each well to obtain a series of CA solutions (concentrations of 25, 50, 75, and 100 μmoL). After 48 h of treatment, Caco-2 cells were subjected to the MTT assay as described previously. For the transport study, Caco-2 cells were seeded on the apical compartment (AP) of 12-well Transwell plates at a density of 2 × 10^5 cells/mL. The complete culture medium was added into basolateral (BL) and AP compartments. The basolateral medium was replaced every other day.
(§2) CA was dissolved in HBSS solution at 50, 75, and 100 μM. The HBSS solution containing CA combined with 0.5% Tween 80, 5 mmol/L EDTA or 5% PEG 400 was prepared. The cumulative migration (Qr), apparent permeability coefficient (Papp), and the Papp value of bi-direction transport of CA were calculated according to formulas.
(§3) The 0.5 mL […] containing different concentrations of CA was added to the AP side of the 12-well Transwell plate, and 1.5 mL HBSS solution was added to the BL side. At 0, 0.5, 1, 1.5, 2, 2.5, and 3 h, 0.2 mL medium was taken from the BL side and stored at −80 °C. The TEER value of each Transwell chamber was measured.
(§4) The cryopreserved Transwell samples were transferred to a 15 mL centrifuge tube, and any remaining liquid was fully washed using 1 mL of 50% methanol solution which was also transferred to the 15 mL centrifuge tube. The mixture was vortexed for 1 min, and 6 mL of ethyl acetate solution was added to the tube and vortexed for another 2 min. The mixture was centrifuged at 6000 rpm/min at 4 °C for 10 min. The supernatant was dried under vacuum, dissolved in 5% phosphoric acid methanol solution, and filtered through a 0.22 μm microporous membrane. The concentration of CA was determined by HPLC as described above.

[1] = as above; type: in vitro ADME, human; conditions: human
Description: as §1, §2, §3, §4

[2] = Caco-2, CA 50 μM, Average of 0.5-3.0 h

SMILES: CC(C)c1cc2c(c(O)c1O)[C@@]1(C(=O)O)CCCC(C)(C)[C@@H]1CC2 [CA, Carnosic acid]
- permeability classification (Caco-2 cell monolayer): moderately permeable
- Papp B→A at 0.5 h, 50 μM ([1]; Caco-2, CA 50 μM, 0.5 h): 1.2 ± 1 nm/s
- efflux ratio at 0.5 h, 50 μM ([1]; Caco-2, CA 50 μM, 0.5 h): 0.42
- Papp A→B at 0.5 h, 50 μM ([1]; Caco-2, CA 50 μM, 0.5 h, CA alone, read-out: Papp AP to BL): 2.8 ± 0.7 nm/s
- Papp A→B at 0.5 h, 50 μM ([1]; Caco-2, CA 50 μM, 0.5 h, read-out: Papp AP-BL): 2.8 ± 0.7 nm/s
- Papp B→A at 1 h, 50 μM ([1]; Caco-2, CA 50 μM, 1.0 h): 2.1 ± 0.9 nm/s
- efflux ratio at 1 h, 50 μM ([1]; Caco-2, CA 50 μM, 1.0 h): 0.58
- Papp A→B at 1 h, 50 μM ([1]; Caco-2, CA 50 μM, 1.0 h, CA alone, read-out: Papp AP to BL): 3.6 ± 0.1 nm/s
- Papp A→B at 1 h, 50 μM ([1]; Caco-2, CA 50 μM, 1.0 h, read-out: Papp AP-BL): 3.6 ± 0.1 nm/s
- Papp B→A at 1.5 h, 50 μM ([1]; Caco-2, CA 50 μM, 1.5 h): 3.6 ± 0.6 nm/s
- efflux ratio at 1.5 h, 50 μM ([1]; Caco-2, CA 50 μM, 1.5 h): 0.52
- Papp A→B at 1.5 h, 50 μM ([1]; Caco-2, CA 50 μM, 1.5 h, CA alone, read-out: Papp AP to BL): 6.9 ± 0.9 nm/s
- Papp A→B at 1.5 h, 50 μM ([1]; Caco-2, CA 50 μM, 1.5 h, read-out: Papp AP-BL): 6.9 ± 0.9 nm/s
- Papp B→A at 2 h, 50 μM ([1]; Caco-2, CA 50 μM, 2.0 h): 4.9 ± 0.7 nm/s
- efflux ratio at 2 h, 50 μM ([1]; Caco-2, CA 50 μM, 2.0 h): 0.44
- Papp A→B at 2 h, 50 μM ([1]; Caco-2, CA 50 μM, 2.0 h, CA alone, read-out: Papp AP to BL): 11.1 ± 0.4 nm/s
- Papp A→B at 2 h, 50 μM ([1]; Caco-2, CA 50 μM, 2.0 h, read-out: Papp AP-BL): 11.1 ± 0.4 nm/s
- Papp B→A at 2.5 h, 50 μM ([1]; Caco-2, CA 50 μM, 2.5 h): 5.6 ± 0.5 nm/s
- efflux ratio at 2.5 h, 50 μM ([1]; Caco-2, CA 50 μM, 2.5 h): 0.98
- Papp A→B at 2.5 h, 50 μM ([1]; Caco-2, CA 50 μM, 2.5 h, CA alone, read-out: Papp AP to BL): 5.7 ± 0.3 nm/s
- Papp A→B at 2.5 h, 50 μM ([1]; Caco-2, CA 50 μM, 2.5 h, read-out: Papp AP-BL): 5.7 ± 0.3 nm/s
- Papp B→A at 3 h, 50 μM ([1]; Caco-2, CA 50 μM, 3.0 h): 2.9 ± 0.3 nm/s
- efflux ratio at 3 h, 50 μM ([1]; Caco-2, CA 50 μM, 3.0 h): 1.32
- Papp A→B at 3 h, 50 μM ([1]; Caco-2, CA 50 μM, 3.0 h, CA alone, read-out: Papp AP to BL): 2.2 ± 0.2 nm/s
- Papp A→B at 3 h, 50 μM ([1]; Caco-2, CA 50 μM, 3.0 h, read-out: Papp AP-BL): 2.2 ± 0.2 nm/s
- Papp B→A at 50 μM [1, 2]: 3.3 ± 0.3 nm/s
- efflux ratio at 50 μM [1, 2]: 0.62
- Papp A→B at 50 μM ([1]; Caco-2, CA 50 μM, Average of 0.5-3.0 h, CA alone, read-out: Papp AP to BL): 5.4 ± 0.5 nm/s
- Papp A→B at 50 μM ([1]; Caco-2, CA 50 μM, Average of 0.5-3.0 h, read-out: Papp AP-BL): 5.3 ± 0.2 nm/s
- Papp B→A at 0.5 h, 75 μM ([1]; Caco-2, CA 75 μM, 0.5 h): 9.1 ± 0.2 nm/s
- efflux ratio at 0.5 h, 75 μM ([1]; Caco-2, CA 75 μM, 0.5 h): 0.88
- Papp A→B at 0.5 h, 75 μM ([1]; Caco-2, CA 75 μM, 0.5 h, CA alone, read-out: Papp AP to BL): 10.3 ± 0.1 nm/s
- Papp A→B at 0.5 h, 75 μM ([1]; Caco-2, CA 75 μM, 0.5 h, read-out: Papp AP-BL): 10.3 ± 0.1 nm/s
- Papp B→A at 1.5 h, 75 μM ([1]; Caco-2, CA 75 μM, 1.5 h): 7.9 ± 0.7 nm/s
- efflux ratio at 1.5 h, 75 μM ([1]; Caco-2, CA 75 μM, 1.5 h): 0.95
- Papp A→B at 1.5 h, 75 μM ([1]; Caco-2, CA 75 μM, 1.5 h, CA alone, read-out: Papp AP to BL): 8.3 ± 0.1 nm/s
- Papp A→B at 1.5 h, 75 μM ([1]; Caco-2, CA 75 μM, 1.5 h, read-out: Papp AP-BL): 8.3 ± 0.1 nm/s
- Papp B→A at 2 h, 75 μM ([1]; Caco-2, CA 75 μM, 2.0 h): 6.2 ± 0.1 nm/s
- efflux ratio at 2 h, 75 μM ([1]; Caco-2, CA 75 μM, 2.0 h): 0.33
- Papp A→B at 2 h, 75 μM ([1]; Caco-2, CA 75 μM, 2.0 h, CA alone, read-out: Papp AP to BL): 18.4 ± 1 nm/s
- Papp A→B at 2 h, 75 μM ([1]; Caco-2, CA 75 μM, 2.0 h, read-out: Papp AP-BL): 18.4 ± 1 nm/s
- Papp B→A at 2.5 h, 75 μM ([1]; Caco-2, CA 75 μM, 2.5 h): 4.1 ± 0.3 nm/s
- efflux ratio at 2.5 h, 75 μM ([1]; Caco-2, CA 75 μM, 2.5 h): 0.49
- Papp A→B at 2.5 h, 75 μM ([1]; Caco-2, CA 75 μM, 2.5 h, CA alone, read-out: Papp AP to BL): 8.3 ± 0.1 nm/s
- Papp A→B at 2.5 h, 75 μM ([1]; Caco-2, CA 75 μM, 2.5 h, read-out: Papp AP-BL): 8.3 ± 0.1 nm/s
- Papp B→A at 3 h, 75 μM ([1]; Caco-2, CA 75 μM, 3.0 h): 3.8 ± 0.3 nm/s
- efflux ratio at 3 h, 75 μM ([1]; Caco-2, CA 75 μM, 3.0 h): 0.61
